Where two headings read alike, the source gives them in different places. Marks after values point to notes of the source that are not given here.
Legend:
adjuvant arthritis = assay: Anti-adjuvant-arthritic activity; assay type: in vivo, SD rats; details: 10 mg/kg orally once a day for 14 days; volume of left hind limb (not injected); day of reading not given
Experimental: Anti-Adjuvant-Arthritic Activity
Male SD origin male-rats (6 weeks old, CLEA Japan, 1 group: n=7) were used. The adjuvant arthritis method was conducted according to the method of Newbould B. B. et. al., (Brit. J. Pharmacol. Chemother., vol. 21, p. 127, 1963). Complete Freund's adjuvant (a suspension of killed tubercule bacillus in liquid paraffin at a concentration of 0.5%, 0.05 mL) was injected into the right hind limb footpad intracutaneouly to induce multiple arthritis. Samples were administered orally (10 mg/kg, b.w.), once a day for 14 days from the day before the injection day 0 to day 13. Volume of the left hind limb (not injected) was determined by the foot-volume measurement apparatus manufactured by Ugo Basile, on the day just before the adjuvant shot (Day 0), Day 10 and Day 14, and repression rate (%) was calculated comparing the values between the sample group and the control group.

[1] = system: acetic acid induced rising and stretching; assay: Analgesic activity, acetic acid rising method; assay type: in vivo, ICR-mice; details: po, 20 min; 10 mg/kg orally, 30 minutes before 0.6% acetic acid i.p.; number of rising and stretching in 20 minutes; read-out: Repression rate (%) Dosage 10 mg/kg
Experimental: Analgesic Activity Acetic Acid Rising Method Male ICR-mice (5 weeks old, CLEA Japan) were used (1 group, n=10), and a sample was orally administered (0.2 mL/10 g, b.w.). After 30 minutes, 0.6% acetic acid solution was injected to mice intraperitoneally (0.1 mL/10 g, b.w.), and the mice were immediately transferred into an observation cage made of a transparent acrylic resin. The number of rising and stretching during the following period of 20 minutes was counted. The repression rate (%) was calculated by comparing the average numbers between the sample groups and the control groups.

yeast-induced pyrexia = assay: Antipyretic activity in yeast-induced pyrexia; assay type: in vivo, SD rats; details: 10 mg/kg orally; maximum difference in body temperature vs control over 6 hours
Experimental: Antipyretic Activity in Yeast-Induced Pyrexia Antipyretic activity was determined using male SD origin male-rats (7 weeks old, CLEA Japan, 1 group: n=6), according to the method of winter et. al. (J. Pharmacol. Exp. Ther., vol. 138, p. 405, 1963). Before 16 hours from measurement of body temperature, a suspension of 15% yeast in saline was injected subcutaneously (10 mL/kg, b.w.) into the rats to induce fever, and simultaneously supply of food was terminated while water was made available all the time. Each of the rats was raised separately. After 16 hours from the yeast shot, a thermistor terminal was inserted at an about 4 cm depth into rectum every hour, and the body temperatures after 30 seconds were recorded. After 18 hours, rats developing fevers consistently were selected, and a sample was orally administered to the rats (5 mL/kg, b.w.), while to the control, only the solvent was administered. After the administration, body temperatures were measured every hour for a period of 6 hours, and the maximum difference in body temperature between the rats in the sample group and in the control group were determined as Δ (° C.).

[2] = system: carrageenin edema of right hind limb plantar; assay: Anti-inflammatory activity, carrageenin edema method; assay type: in vivo, SD-rats; details: po, 10 mg/kg orally
Experimental: Anti-Inflammatory Activity
Male SD-rats (6 weeks old, CLEA Japan) were used (1 group, n=6). The Carrageenin edema method was performed according to the method of Winter et. al., (Proc. Soc. Exp. Biol. Med., vol. 111, p. 544-547, 1962). After the volume of right hind limb plantar of the rat was determined, a sample was orally administered (1.0 mL, b.w.), and immediately water was orally administered in an amount of 5 mL/rat. Meanwhile, only the solvent of the sample was orally administered to rats in control. After 1 hour, a solution of 1% carrageenin in saline (0.05 mL) was injected into the right hind limb plantar subcutaneously to induce edema. After 2 and 3 hours later from the injection, volumes of the right hind limb plantar were determined. The repression rate (%) of the sample was calculated by comparing the difference of the volumes of the plantar before the carrageenin shot and 2 and 3 hours after the shot between the sample groups and the control groups.

[3] = system: mucosa of small intestine; assay: Disorder of mucosa of small intestine; assay type: in vivo, SD rats; details: 100 mg/kg orally, freely fed rats, 6 hours after dosing
Experimental: Disorder of Mucosa of Small Intestine Male SD origin male-rats (7 weeks old, CLEA Japan) were used. To the rats freely fed, samples were administered orally (5 mL/kg, b.w.). After 5.5 hours from the administration, Evan's Blue (0.5% Evan's Blue/saline) was injected (1 mL/rat) intravenously under no anesthesia. After 30 minutes from the shot, the intestine was removed by celiotomy and the area thereof facing mesentery was cut open. After removal of intestinal content, the spots in the intestine dyed by Evan's Blue were measured under a stereomicroscope, and the total length (mm) of the spots was determined by a counter and recorded.

human COX-1 = target: T1, human COX-1 (Homo sapiens, UniProt P23219); assay: Determination of COX-1 inhibitory activity (microsome fraction, chemiluminescence); assay type: biochemical; details: microsome fraction 40 μg, arachidonic acid, 37° C. 25 minutes preincubation; read-out: Repression rate IC50 (μM) COX-1
T1 construct: made in house; host or cells: Sf-21 insect cells (recombinant baculovirus BAC-COX1, pFASTBAC1); microsome fraction
T1 sequence (P23219 24-599): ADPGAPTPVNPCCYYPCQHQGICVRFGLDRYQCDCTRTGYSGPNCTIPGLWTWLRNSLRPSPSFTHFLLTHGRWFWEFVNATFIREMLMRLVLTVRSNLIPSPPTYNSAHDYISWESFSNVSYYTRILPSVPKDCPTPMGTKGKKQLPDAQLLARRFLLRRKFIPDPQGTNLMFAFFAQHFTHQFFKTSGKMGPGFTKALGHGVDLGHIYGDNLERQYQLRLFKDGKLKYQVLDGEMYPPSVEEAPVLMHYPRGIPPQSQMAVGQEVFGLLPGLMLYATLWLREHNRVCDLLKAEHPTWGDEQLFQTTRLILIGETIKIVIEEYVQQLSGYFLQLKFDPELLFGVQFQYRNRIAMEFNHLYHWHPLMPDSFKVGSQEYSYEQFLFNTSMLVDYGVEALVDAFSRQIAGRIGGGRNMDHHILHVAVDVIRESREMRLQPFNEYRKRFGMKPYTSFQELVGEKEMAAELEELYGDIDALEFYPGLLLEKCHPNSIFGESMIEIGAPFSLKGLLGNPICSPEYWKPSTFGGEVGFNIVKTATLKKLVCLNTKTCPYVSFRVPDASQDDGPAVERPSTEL
Experimental: A 1.8 kb DNA fragment containing human COX-1 cDNA (FASEB J., vol. 5 (9), p. 2304-2312 (1991)) prepared by the PCR method was inserted into plasmid pFASTBAC1 (CIBCOBRL) to obtain a plasmid pFBCOX1.
Using the plasmid pFBCOX1 and BAC-TO-BAC Baculovirus Expression System (GIBCOBRL), a virus stock BAC-COX1 of the recombinant baculovirus was prepared.
Sf-21 cells were inoculated in 125 mL of Sf-900 II SFM medium (GIBCOBRL) at a concentration of 1×10^6 cells/mL, and the medium was incubated at 27° C. for 24 hours. 0.75 mL of the virus stock BAC-COX1 of the recombinant baculovirus was added thereto, and the mixture was incubated further for 72 hours. The cells were separated from the medium by centrifugation (3000 rpm, 10 min), and washed with PBS twice. The cells were suspended in 10 mL of a Lysis buffer (0.1M Tris-HCl (pH 7.4), 5 mM EDTA), and were treated with a homogenizer (POLYTRON) three times at 20000 rpm for 20 seconds so that the cells were crushed. The supernatant obtained after centrifugation (2000 rpm, 10 minutes) was further centrifuged (40000 rpm, 45 minutes) to give a precipitate, which was resuspended in a Lysis buffer (0.1M Tris-HCl (pH 7.4), 5 mM EDTA), and the suspension was stored at −80° C.
(§1) Determination of COX-1 and COX-2 Inhibitory Activities
(§2) To a mixture of 20 μL of a reaction buffer previously concentrated 10 times (1M Tris-HCl (pH8.0), 50 mM EDTA, 1.0% Tween 20, 50 mM luminol, 100 μM hematin), 20 μL of the microsome fractions (COX-1: 40 μg, COX-2: 20 μg), and 55 μL of distilled water, a sample compound dissolved in DMF (5 μL) was added, and the mixture was left at 37° C. for 25 minutes. The reaction was started by the addition of 20 μM arachidonic acid (100 μL), and chemiluminescence amount during the 10-second period after the addition of arachidonic acid was determined by the use of Lumistar (BMG Lab technologies, GmbH). The inhibition rate was calculated, regarding that the enzyme activity when DMF ([…]) was added was 100%, and the enzyme activity when 4 mM flurbiprofen (5 μL) was added was 0%.

human COX-2 = target: T2, human COX-2 (Homo sapiens, UniProt P35354); assay: Determination of COX-2 inhibitory activity (microsome fraction, chemiluminescence); assay type: biochemical; details: microsome fraction 20 μg, arachidonic acid, 37° C. 25 minutes preincubation; read-out: Repression rate IC50 (μM) COX-2
T2 construct: made in house; host or cells: Sf-21 insect cells (recombinant baculovirus BAC-COX2, pFASTBAC1); microsome fraction
T2 sequence (P35354 18-604): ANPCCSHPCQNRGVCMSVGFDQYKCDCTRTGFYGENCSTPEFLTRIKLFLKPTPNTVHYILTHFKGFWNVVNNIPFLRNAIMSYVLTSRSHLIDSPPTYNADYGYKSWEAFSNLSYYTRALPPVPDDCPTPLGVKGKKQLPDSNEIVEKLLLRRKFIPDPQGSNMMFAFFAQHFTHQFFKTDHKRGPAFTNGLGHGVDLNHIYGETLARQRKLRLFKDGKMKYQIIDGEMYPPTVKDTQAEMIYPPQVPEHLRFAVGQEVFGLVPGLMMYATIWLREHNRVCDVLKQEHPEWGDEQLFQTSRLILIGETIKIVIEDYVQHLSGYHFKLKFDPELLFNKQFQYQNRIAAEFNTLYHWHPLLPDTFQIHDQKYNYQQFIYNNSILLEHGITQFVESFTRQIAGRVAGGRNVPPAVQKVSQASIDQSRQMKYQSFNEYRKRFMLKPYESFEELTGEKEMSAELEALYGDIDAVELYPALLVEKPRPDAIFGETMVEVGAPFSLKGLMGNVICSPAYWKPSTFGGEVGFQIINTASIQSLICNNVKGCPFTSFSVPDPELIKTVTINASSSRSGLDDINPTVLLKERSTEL
Experimental: A 1.8 kb DNA fragment containing human COX-2 cDNA (Proc. Natl. Acad. Sci. U.S.A., vol. 89 (16), p. 7384-7388 (1992)) prepared by the PCR method was inserted into plasmid pFASTBAC1 (CIBCOBRAL) to obtain a plasmid pFBCOX2.
Using the plasmid pFBCOX2 and BAC-TO-BAC Baculovirus Expression System (GIBCOBRAL), a virus stock BAC-COX2 of the recombinant baculovirus was prepared.
Sf-21 cells were inoculated in 125 mL of LSf-900 II SFM medium (GIBCOBRAL) at a concentration of 1×10^6 cells/mL, and the medium was incubated at 27° C. for 24 hours. 0.75 mL of the virus stock BAC-COX2 of the recombinant baculovirus was added thereto, and was incubated further for 72 hours. The cells were separated from the medium by centrifugation (3000 rpm, 10 min), and washed with PBS twice. The cells were suspended in 10 mL of a Lysis buffer (0.1M Tris-HCl (pH 7.4), 5 mM EDTA), and were treated with a homogenizer (POLYTRON), three times at 20000 rpm for 20 seconds so that the cells were crushed. The supernatant thus obtained after centrifugation (2000 rpm, 10 minutes) was further centrifuged (40000 rpm, 45 minutes) to obtain a precipitate, which was resuspended in a Lysis buffer (0.1M Tris-HCl (pH 7.4), 5 mM EDTA), and the suspension was stored at −80° C.
as §1, §2

[4] = 2 hr after carrageenin injection, read-out: Repression rate (%) Dosage 10 mg/kg 2 hr later
[5] = 3 hr after carrageenin injection, read-out: Repression rate (%) Dosage 10 mg/kg 3 hr later

SMILES	melting point [°C]	Repression rate (%) Dosage 10 mg/kg (adjuvant arthritis)	inhibition in vivo at 10 mg/kg [1] [%]	inhibition in vivo at 10 mg/kg [2, 4] [%]	inhibition in vivo at 10 mg/kg [2, 5] [%]	other results
Cc1nn(-c2ccccn2)c2[nH]c3ccc(F)cc3c(=O)c12 [Example 2-81, 6-Fluoro-3-methyl-1-(2-pyridinyl)-1,9-dihydro-4H-pyrazolo[3,4-b]quinolin-4-one]	278 to 280	56%				
O=c1c2cc(Cl)ccc2[nH]c2c1cnn2-c1ccccn1 [Example 2-161, 6-Chloro-1-(2-pyridinyl)-1,9-dihydro-4H-pyrazolo[3,4-b]quinolin-4-one]	297 to 298		74	33	33	Δ (° C.) Dosage 10 mg/kg (yeast-induced pyrexia): 1.4** ° C.
Cc1nn(-c2ccccn2)c2[nH]c3ccc(C(F)(F)F)cc3c(=O)c12 [Example 2-40, 3-Methyl-1-(2-pyridinyl)-6-(trifluoromethyl)-l,9-dihydro-4H-pyrazolo[3,4-b]quinolin-4-one]						Total length of dyed spots (mm) [3]: 0 (100 mg/kg) mm
COC(=O)c1cccc2[nH]c3c(c(C)nn3-c3ccccn3)c(=O)c12 [Example 2-61, Methyl 3-methyl-4-oxo-1-(2-pyridinyl)-4,9-dihydro-1H-pyrazolo[3,4-b]quinoline-5-carboxylate]	241 to 244		75	36	28	IC50 (human COX-1): 2 µM; IC50 (human COX-2): 44 µM
Cc1nn(-c2ccccn2)c2nc3ccccc3c(OC(C)C)c12 [Example 2-18, 4-Isopropoxy-3-methyl-1-(2-pyridinyl)-1H-pyrazolo[3,4-b]quinoline]	93 to 96	47%				Δ (° C.) Dosage 10 mg/kg (yeast-induced pyrexia): 1.7** ° C.
Cc1nn(-c2ccccn2)c2[nH]c3cc(F)c(Cl)cc3c(=O)c12 [Example 2-99, 6-Chloro-7-fluoro-3-methyl-1-(2-pyridinyl)-1,9-dihydro-4H-pyrazolo[3,4-b]quinolin-4-one]	284		39	46	41	
Cc1nn(-c2ccccn2)c2[nH]c3cc(F)ccc3c(=O)c12 [Example 2-83, 7-Fluoro-3-methyl-1-(2-pyridinyl)-1,9-dihydro-4H-pyrazolo[3,4-b]quinolin-4-one]	260 to 261	65* %				
Cc1nn(-c2ccccn2)c2[nH]c3ccccc3c(=O)c12 [Example 2-12, 3-Methyl-1-(2-pyridinyl)-1,9-dihydro-4H-pyrazolo[3,4-b]quinolin-4-one]						Total length of dyed spots (mm) [3]: 0 (100 mg/kg) mm

Reference: US6949648B2, “Condensed pyrazole derivatives, process for producing the same and use thereof” (Takeda Pharmaceutical Company Limited, priority 2000, dated 2005)
